ChEMBL document CHEMBL4480449, “Conolodinines A-D, Aspidosperma- Aspidosperma Bisindole Alkaloids with Antiproliferative Activity from Tabernaemontana corymbosa” (J Nat Prod, 2019)

Assays:
[1] = Cytotoxicity against human KB/S cells after 72 hrs by MTT assay; assay type: functional, cell-based
KB/VJ300 [2] = assay: Cytotoxicity against human KB/VJ300 cells after 72 hrs by MTT assay; assay type: functional, cell-based
KB/VJ300 [3] = assay: Cytotoxicity against human KB/VJ300 cells after 72 hrs in presence of vincristine by MTT assay; assay type: functional, cell-based; further: test concentration or dose not given here
A549 = assay: Cytotoxicity against human A549 cells after 72 hrs by MTT assay; assay type: functional, cell-based; settings: A549, 72 h
MRC5 = assay: Cytotoxicity against human MRC5 cells after 72 hrs by MTT assay; assay type: cell-based
PC-3 = assay: Cytotoxicity against human PC3 cells after 72 hrs by MTT assay; assay type: functional, cell-based
LNCaP = assay: Cytotoxicity against human LNCAP cells after 72 hrs by MTT assay; assay type: functional, cell-based
MCF7 = assay: Cytotoxicity against human MCF7 cells after 72 hrs by MTT assay; assay type: functional, cell-based
MDA-MB-231 = assay: Cytotoxicity against human MDA-MB-231 cells after 72 hrs by MTT assay; assay type: functional, cell-based
HCT-116 = assay: Cytotoxicity against human HCT116 cells after 72 hrs by MTT assay; assay type: functional, cell-based; settings: HCT-116, 72 h
HT-29 = assay: Cytotoxicity against human HT-29 cells after 72 hrs by MTT assay; assay type: functional, cell-based

Row | SMILES | IC50 ([1]; Homo sapiens, 72 h) [nM] | IC50 (KB/VJ300 [2]; Homo sapiens, KB/VJ300, 72 h) [nM] | IC50 (KB/VJ300 [3]; Homo sapiens, KB/VJ300, 72 h) [nM] | IC50 (A549) [nM] | IC50 (MRC5; Homo sapiens, MRC5, 72 h) [nM] | IC50 (PC-3; Homo sapiens, PC-3, 72 h) [nM] | IC50 (LNCaP; Homo sapiens, LNCaP, 72 h) [nM] | IC50 (MCF7; Homo sapiens, MCF7, 72 h) [nM] | IC50 (MDA-MB-231; Homo sapiens, MDA-MB-231, 72 h) [nM] | IC50 (HCT-116) [nM] | IC50 (HT-29; Homo sapiens, HT-29, 72 h) [nM] | IC50 [1] [nM] | IC50 (MRC5; mrc5) [nM] | IC50 (KB/VJ300 [2]; kb/vj300) [nM] | IC50 (KB/VJ300 [3]; kb/vj300) [nM] | IC50 (PC-3; pc-3) [nM] | IC50 (LNCaP; lncap) [nM] | IC50 (MCF7; mcf7) [nM] | IC50 (MDA-MB-231; mda-mb-231) [nM] | IC50 (HT-29; ht-29) [nM]
1 | CC[C@]12C=CCN3CC[C@]4(C(=C(C(=O)OC)C1)Nc1cc5c(cc14)[C@@H]1[C@H](O5)[C@@H](O)[C@@]4(CC)CC(C(=O)OC)=C5Nc6c(cc(O)c(OC)c6OC)[C@@]56CCN1[C@@H]46)[C@@H]32 | 1500 | > 10000 | – | – | – | – | – | – | – | – | – | – | – | – | – | – | – | – | – | –
2 | CC[C@@]12CC(C(=O)OC)=C3Nc4c(cc(O)c(OC)c4OC)[C@@]34CCN([C@@H]3c5cc6c(cc5O[C@@H]3[C@H]1O)NC1=C(C(=O)OC)C[C@]35CCO[C@H]3CCN3CC[C@@]16[C@@H]35)[C@@H]24 | 500 | – | 1400 | > 10000 | 6200 | – | – | – | – | – | – | – | – | – | – | – | – | – | – | –
3 | CC[C@@]12CC(C(=O)OC)=C3Nc4cc5c(cc4[C@@]34CCN(C[C@H]3O[C@H]31)[C@@H]24)[C@@H]1[C@H](O5)[C@@H](O)[C@@]2(CC)CC(C(=O)OC)=C3Nc4c(ccc(OC)c4O)[C@@]34CCN1[C@@H]24 | 100 | > 10000 | 1300 | > 10000 | – | 7900 | 9600 | 600 | 1400 | 1100 | 300 | – | – | – | – | – | – | – | – | –
4 | CC[C@@]12CC(C(=O)OC)=C3Nc4cc5c(cc4[C@@]34CCN(C[C@H](O)[C@H]1O)[C@@H]24)[C@@H]1[C@H](O5)[C@@H](O)[C@@]2(CC)CC(C(=O)OC)=C3Nc4c(cc(O)c(OC)c4OC)[C@@]34CCN1[C@@H]24 | 700 | > 10000 | > 10000 | > 10000 | – | 2500 | 300 | 1200 | > 10000 | 2100 | 1700 | – | – | – | – | – | – | – | – | –
5 | CC[C@]12C=CCN3CC[C@]4(C(=C(C(=O)OC)C1)Nc1cc5c(cc14)[C@@H]1[C@H](O5)[C@@H](O)[C@@]4(CC)CC(C(=O)OC)=C5N=C6C(=CC(=O)C(OC)=C6OC)[C@@]56CCN1[C@H]64)[C@@H]32 | 30 | 4600 | 4300 | > 10000 | 5600 | 300 | 2800 | 800 | 500 | 100 | 400 | – | – | – | – | – | – | – | – | –
6 | CC[C@@]12CC(C(=O)OC)=C3N=C4C(=CC(=O)C(OC)=C4OC)[C@@]34CCN([C@H](c3ccc5c(c3)[C@@]36CCN7C[C@H]8O[C@H]8[C@@](CC)(CC[C@@H]3N5C)[C@H]76)[C@H]3O[C@H]31)[C@H]42 | 1100 | 2700 | 4400 | > 10000 | > 10000 | 4300 | 3300 | 8400 | 6000 | 2400 | 3400 | – | – | – | – | – | – | – | – | –
7 | CC[C@@]12CC(C(=O)OC)=C3N=C4C(=CC(=O)C(OC)=C4OC)[C@@]34CCN([C@@H]3c5cc6c(cc5O[C@@H]3[C@H]1O)NC1=C(C(=O)OC)C[C@]3(CC)[C@@H]5O[C@@H]5CN5CC[C@@]16[C@@H]53)[C@H]42 | 100 | 8600 | 1500 | > 10000 | – | 700 | > 10000 | 300 | 400 | 200 | 200 | – | – | – | – | – | – | – | – | –
8 | CC[C@@]12CC(C(=O)OC)=C3N=C4C(=CC(=O)C(OC)=C4OC)[C@@]34CCN([C@@H]3c5cc6c(cc5O[C@@H]3[C@H]1O)NC1=C(C(=O)OC)C[C@]3(CC)[C@H](O)[C@@H](O)CN5CC[C@@]16[C@@H]53)[C@H]42 | 200 | > 10000 | > 10000 | > 10000 | > 10000 | > 10000 | 2600 | 3500 | 5400 | 3100 | 2300 | – | – | – | – | – | – | – | – | –
9 | CC[C@@]12C=C(C(=O)OC)C3=Nc4c(cc(O)c(OC)c4OC)[C@@]34CCN([C@@H]3c5cc6c(cc5O[C@@H]3[C@H]1O)NC1=C(C(=O)OC)C[C@]3(CC)[C@@H]5O[C@@H]5CN5CC[C@@]16[C@@H]53)[C@@H]24 | 1100 | > 10000 | 4100 | > 10000 | – | 4700 | > 10000 | 4800 | 3600 | 4300 | 2200 | – | – | – | – | – | – | – | – | –
10 | CC[C@@]12CC(C(=O)OC)=C3N=C4C(=CC(=O)C(O)=C4OC)[C@@]34CCN([C@@H]3c5cc6c(cc5O[C@@H]3[C@H]1O)NC1=C(C(=O)OC)C[C@]3(CC)[C@@H]5O[C@@H]5CN5CC[C@@]16[C@@H]53)[C@H]42 (stereo in doubt; 7) | – | 4200 | 3000 | > 10000 | – | 600 | 1600 | 800 | 1300 | 500 | 800 | 30 | 1500 | – | – | – | – | – | – | –
11 | CC[C@@]12CC(C(=O)OC)=C3N=C4C(=CC(=O)C(O)=C4OC)[C@@]34CCN([C@@H]3c5cc6c(cc5O[C@@H]3[C@H]1O)NC1=C(C(=O)OC)C[C@]3(CC)[C@@H]5O[C@@H]5CN5CC[C@@]16[C@@H]53)[C@H]42 (stereo in doubt; 8) | – | – | – | – | – | – | – | – | – | – | – | 10 | 4000 | 2900 | 4200 | 500 | 1000 | 700 | 800 | 1000
12 | CC[C@@]12CC[C@@H]3N(C)c4ccc([C@@H]5[C@H]6O[C@H]6[C@@]6(CC)CC(C(=O)OC)=C7Nc8c(cc(O)c(OC)c8OC)[C@@]78CCN5[C@@H]68)cc4[C@@]34CCN(C[C@H]3O[C@H]31)[C@@H]24 [CONOFOLINE] | > 10000 | > 10000 | – | 8200 | – | 2300 | > 10000 | > 10000 | 9900 | 6600 | 8500 | – | – | – | – | – | – | – | – | –
13 | CC[C@@]12CC(C(=O)OC)=C3Nc4cc5c(cc4[C@@]34CCN(C[C@H]3O[C@H]31)[C@@H]24)[C@@H]1[C@H](O5)[C@@H](O)[C@@]2(CC)CC(C(=O)OC)=C3Nc4c(cc(O)c(OC)c4OC)[C@@]34CCN1[C@@H]24 [CONOPHYLLINE] | 30 | > 10000 | 4900 | 3200 | – | 300 | > 10000 | 2100 | 1600 | 800 | 3000 | – | – | – | – | – | – | – | – | –
14 | COc1ccc(CCN(C)CCCC(C#N)(c2ccc(OC)c(OC)c2)C(C)C)cc1OC (stereo unspecified) [VERAPAMIL] | – | – | 800 | – | – | – | – | – | – | – | – | – | – | – | – | – | – | – | – | –
15 | CC[C@]1(O)C[C@H]2CN(CCc3c([nH]c4ccccc34)[C@@](C(=O)OC)(c3cc4c(cc3OC)N(C=O)[C@H]3[C@@](O)(C(=O)OC)[C@H](OC(C)=O)[C@]5(CC)C=CCN6CC[C@]43[C@@H]65)C2)C1 [VINCRISTINE] | 0.4 | 2600 | – | – | – | – | – | – | – | – | – | – | – | – | – | – | – | – | – | –
